B1: NGF: Recombinant mouse NGF (R&D Systems) dissolved in 1× PBS, 100 μg/ml eye drops; positive control (protein, UniProt P01139 122-241, looked up)
Beta-nerve growth factor: SSTHPVFHMGEFSVCDSVSVWVGDKTTATDIKGKEVTVLAEVNINNSVFRQYFFETKCRASNPVESGCRGIDSKHWNSYCTTTHTFVKALTTDEKQAAWRFIRIDTACVCVLSRKATRRG

Experiments:
[1] = Change in mouse weight, baseline to 3 weeks post-injury; type: in vivo; settings: medium dose 300 μg/ml group
Method: (§1) Change in mouse weight was compared from baseline to 3 weeks post-injury, and weight in the pergolide groups was compared to the non-pergolide groups (N=10; 5 male, 5 female). Following euthanasia, the heart and eyes were removed from the high dose pergolide and vehicle groups and histopathology was assessed using previously described protocols.

C57BL/6J mice = experiment: Histopathology of heart, retina, liver and kidney after topical treatment; type: in vivo, mouse; settings: high, medium, and low dose topical eye drops for 3 weeks
Method: as §1
In brief, after excision, hearts, livers, and kidneys were fixed in formalin for 24 hours then embedded in paraffin and cut in the coronal and transverse planes (N=4; 2 male, 2 female) (Droogmans 2007 & 2009). Eyes were fixed in Davidson's solution for 24 hours then placed in 70% ethanol and processed prior then embedded in paraffin and cut in the sagittal plane (N=4; 2 male, 2 female) (Chidlow 2011). Hematoxylin and eosin were used to stain the slides (Cardiff 2014), then the EVOS fluorescence microscope was used to capture images.

[2] = tested on: C57BL/6J mice with alkali corneal injury; experiment: Wiping test (ocular pain behavior) after corneal alkali injury; type: in vivo, mouse; settings: females; for wiping (eye wipes, week minus baseline): week 2 post-injury, heightened vs week 1
Method: Seventy (35 male, 35 female) C57BL/6J mice (The Jackson Laboratory, Maine, US) were utilized (FIG. 1A). Mice were kept in a 12 hour light/12 hour dark cycle in groups of 5 with food and water ad libitum. Differences between males and females were assessed.
(§2) Mice were separated into 7 treatment groups with 10 mice per group (5 male, 5 female); high dose pergolide (600 μg/ml), medium dose pergolide (300 μg/ml), low dose pergolide (50 μg/ml), vehicle (solution only), NGF (100 μg/ml), naïve (injury and no treatment), and normal (no injury and no treatment). Preparation of pergolide and vehicle groups were done with Marinosolv® (Marinomed, Hovengasse, Korneuburg, AT) as described in (Siegl 2019 and Zhang 2020). Recombinant mouse NGF (R&D Systems, Minneapolis, MN, US) was prepared by dissolution in 1× phosphate-buffered saline (PBS). Both solutions were stored at 4 C according to the manufacturer's guidelines.
(§3) Mice were confirmed to have normal corneas prior to starting the study. Alkali corneal injury was done on one eye of each mouse for all groups excluding the normal group, in accordance with an established mouse model (Cho J 2019). Alkali-based injury was chosen as it is one of the most common chemical injuries to the eye (Dua 2020). […] A 2 mm diameter filter paper disc was soaked in sodium hydroxide (0.75 M) then applied centrally on the cornea for 10 seconds. The disc was then removed and the ocular surface immediately irrigated with 10 ml of balanced sodium salts. The corneal surface was then lightly rubbed with the smooth side of forceps and irrigated in the same manner. None of the mice had eyelid or conjunctiva involvement of the injury. Erythromycin ointment (Perrigo, Dublin, IE) was then applied to the exterior of both eyes. Mice were placed on a water heating pad, monitored until fully awake, then returned to their cage.
All groups except the no treatment groups received their respective eye drops (10 μl per eye drop) three times daily (5 out of 7 days each week) in the injured eye for 3 weeks following injury. Mice were held for 10 seconds with the eye drop on their eye before being returned to their cage. Mice were sacrificed by cervical dislocation after week 3.
Wiping test was chosen to assess ocular pain behavior and was done once weekly (at the same time), in accordance with previously established protocols (N=10; 5 male, 5 female) (Tashiro et al. 2010, Cho J et al. 2019). Testing was performed in a clear open-top cylinder surrounded by 2 mirrors and a video recorder in front of the cylinder. Mice were habituated to the cylinder prior to the start of the study. The test consisted of applying 10 μl of sodium chloride (2 M) to the surface of the study cornea for 10 seconds, blotting excess away, then recording the mouse in the cylinder for 30 seconds. […] A different pipette tip was used for each mouse. Sudden movements and loud noises were avoided during testing so as to not distract the subjects. An eye wipe was defined as a purposeful wipe by the ipsilateral forelimb across the eye or resulting in eye closure. Cage changes were not done within 3 days of each test, and when cage changes occurred it happened for each group simultaneously. Eye wiping was assessed at baseline (3 days prior to injury) and on post-injury weeks 1, 2, and 3.

[3] = tested on: C57BL/6J mice with alkali corneal injury; experiment: Central corneal nerve density (β-tubulin III stained flat-mounts); type: in vivo, mouse; settings: 3 weeks post injury; low dose 50 μg/ml; normal control 0.43±0.05
Method: as §2
Mice were confirmed to have normal corneas prior to starting the study. Alkali corneal injury was done on one eye of each mouse for all groups excluding the normal group, in accordance with an established mouse model (Cho J 2019). […] Mice were placed on a water heating pad, monitored until fully awake, then returned to their cage. […]
(§4) Flat-mounts of mouse corneas were prepared and corneal nerve density was analyzed as previously described (N=6; 3 male, 3 female) (Zhang 2020) (FIG. 3A). […]
(§5) EVOS fluorescence microscope (Life Technologies, Carlsbad, CA, US) was used to create reconstructed whole-mount images and take images at the basal epithelial level in the central area of the injury. […]

[4] = tested on: C57BL/6J mice with alkali corneal injury; experiment: Corneal haze grading (Roper-Hall classification) after corneal alkali injury; type: in vivo, mouse; settings: 3 weeks post injury; medium dose 300 μg/ml; grade 0-4; naïve group 3.3±0.8
Method: as §2
as §3, with “The corneal surface was then lightly rubbed with the smooth side of forceps and irrigated in the same manner. None of the mice had eyelid or conjunctiva involvement of the injury. Erythromycin ointment (Perrigo, Dublin, IE) was then applied to the exterior of both eyes.” left out, “cage. […]” for “cage.”

[5] = tested on: C57BL/6J mice with alkali corneal injury; experiment: Limbal nerve density (β-tubulin III stained flat-mounts); type: in vivo, mouse; settings: 3 weeks post injury, normal control 0.37±0.09
Method: as §2
as §3, with “cage. […]” for “cage.”
as §4, §5

[6] = medium dose 300 μg/ml eye drops

| Molecule | minor weight loss of one mouse, of initial body weight [1] | retina, liver and kidney morphology (C57BL/6J mice) | heart histopathology (C57BL/6J mice; compared to the vehicle group) | wiping (eye wipes, week minus baseline) ([2]; high dose 600 μg/ml eye drops) [wipes] | wiping (eye wipes, week minus baseline) [2, 6] [wipes] | wiping at week 3 compared to week 2 ([2]; high dose 600 μg/ml eye drops) | wiping at week 3 compared to week 2 [2, 6] | central corneal nerve density (proportion of area with β-tubulin III staining) [3] | corneal haze grade [4] | limbal nerve density ([5]; high dose 600 μg/ml) | limbal nerve density ([5]; medium dose 300 μg/ml) | wiping (eye wipes, week minus baseline) ([2]; 100 μg/ml eye drops) [wipes] | wiping at week 3 compared to week 2 ([2]; 100 μg/ml eye drops) | limbal nerve density ([5]; 100 μg/ml) |
| --- | --- | --- | --- | --- | --- | --- | --- | --- | --- | --- | --- | --- | --- | --- |
| CCCN1C[C@H](CSC)C[C@@H]2c3cccc4[nH]cc(c34)C[C@H]21 [pergolide] | about 1% | did not show abnormal morphology | did not show presence of valvular fibrosis, glycosaminoglycans deposits/myxoid changes, chondroid metaplasia, or other abnormal pathology | 7.0±5.8 | 6.2±5.5 | decreased | decreased | 0.10±0.03 | 2.2±1.1 | 0.35±0.11 | 0.34±0.08 |  |  |  |
| B1 |  |  |  |  |  |  |  |  |  |  |  | 4.6±5.1 | decreased | 0.36±0.08 |

Source: US20240325378A1, “PERGOLIDE TREATMENT OF OCULAR CHEMICAL INJURY” (University of Oregon, priority 2023, published 2024)
